Source: patent US11746098B2, “Proteasome activity enhancing compounds” (Proteostasis Therapeutics, Inc., priority 2018, dated 2023)

What follows are compounds tested against USP14 (Homo sapiens, UniProt P54578) (assay: USP14 Inhibition Assay). Settings: average value from a minimum of two experimental determinations, read-out: IC50 Category.
Format: biochemical
Source text: The activity of the compound described herein to inhibit USP14 can be measured using previously described methodology [B. H. Lee et al. Nature 2010, 467 (9), 179, the contents of which are expressly incorporated by reference herein].
Example 6: USP14 Inhibition Assay

| IC50 | SMILES |
| --- | --- |
| > 5 µM | Cc1cc(C(=O)CN2CCCCC2)c(C)n1[C@H]1CC[C@H](C(N)=O)CC1 [Compound 122, trans-4-(2,5-Dimethyl-3-(2-(piperidin-1-yl)acetyl)-1H-pyrrol-1-yl)cyclohexane-1-carboxamide] |
| 0.5 to 5 µM | Cc1cc(C(=O)CNCC(O)CO)c(C)n1-c1ccc(C#N)cc1 (stereo not shown) [Compound 134, 4-(3-(2-((2,3-Dihydroxypropyl)amino)acetyl)-2,5-dimethyl-1H-pyrrol-1-yl)benzonitrile] |
| 0.5 to 5 µM | Cc1cc(C(=O)CN2CCC(CNC(=O)OC(C)(C)C)CC2)c(C)n1-c1ccc(C#N)cc1 [Compound 135, tert-butyl ((1-(2-(1-(4-Cyanophenyl)-2,5-dimethyl-1H-pyrrol-3-yl)-2-oxoethyl)piperidin-4-yl)methyl)carbamate] |
| 0.5 to 5 µM | CC#Cc1ccc(-n2c(C)cc(C(=O)CN3CCCCC3)c2C)cc1 [Compound 136, 1-(2,5-Dimethyl-1-(4-(prop-1-yn-1-yl)phenyl)-1H-pyrrol-3-yl)-2-(piperidin-1-yl)ethanone] |
| 0.5 to 5 µM | Cc1c(C(=O)CN2CCCCC2)c(C)n(-c2ccc(Cl)cc2)c1C [Compound 137, 1-(1-(4-Chlorophenyl)-2,4,5-trimethyl-1H-pyrrol-3-yl)-2-(piperidin-1-yl)ethanone] |
| 0.5 to 5 µM | Cc1cc(C(=O)CN(C)CCCCC(N)C(=O)O)c(C)n1-c1ccc(C#N)cc1 (stereo not shown) [Compound 138, 2-Amino-6-((2-(1-(4-cyanophenyl)-2,5-dimethyl-1H-pyrrol-3-yl)-2-oxoethyl)(methyl)amino)hexa-noic acid] |
| 0.5 to 5 µM | Cc1c(C(=O)CN2CCC(O)CC2)c(C)n(-c2ccc(Cl)cc2)c1C [Compound 139, 1-(1-(4-Chlorophenyl)-2,4,5-trimethyl-1H-pyrrol-3-yl)-2-(4-hydroxypiperidin-1-yl)ethanone] |
| 0.5 to 5 µM | CC#Cc1ccc(-n2c(C)cc(C(=O)CN3CCC(O)CC3)c2C)cc1 [Compound 140, 1-(2,5-Dimethyl-1-(4-(prop-1-yn-1-yl)phenyl)-1H-pyrrol-3-yl)-2-(4-hydroxypiperidin-1-yl)ethanone] |
| 0.5 to 5 µM | Cc1cc(C(=O)CN2CCCCC2)c(C)n1[C@H]1CC[C@H](C#N)CC1 [Compound 143, trans-4-(2,5-Dimethyl-3-(2-(piperidin-1-yl)acetyl)-1H-pyrrol-1-yl)cyclohexane-1-carbonitrile] |
| < 0.5 µM | Cc1cc(C(=O)CN2CCC(CN)CC2)c(C)n1-c1ccc(C#N)cc1 [Compound 157, 4-(3-(2-(4-(Aminomethyl)piperidin-1-yl)acetyl)-2,5-dimethyl-1H-pyrrol-1-yl)benzonitrile] |
| < 0.5 µM | Cc1cc(C(=O)CN2CCCC(CNC(=O)OC(C)(C)C)C2)c(C)n1-c1ccc(C#N)cc1 (stereo not shown) [Compound 158, tert-butyl ((1-(2-(1-(4-cyanophenyl)-2,5-dimethyl-1H-pyrrol-3-yl)-2-oxoethyl)piperidin-3-yl)methyl)carbamate] |
| < 0.5 µM | Cc1cc(C(=O)CN2CCCC(CN)C2)c(C)n1-c1ccc(C#N)cc1 (stereo not shown) [Compound 159, 4-(3-(2-(3-(Aminomethyl)piperidin-1-yl)acetyl)-2,5-dimethyl-1H-pyrrol-1-yl)benzonitrile] |

Further lines, the compound ahead of its results:

| SMILES | IC50 |
| --- | --- |
| Cc1c(C(=O)CN2CCCCC2)cn(C)c1-c1ccc(Cl)cc1 [Compound 93, 1-(5-(4-Chlorophenyl)-1,4-dimethyl-1H-pyrrol-3-yl)-2-(piperidin-1-yl)ethanone] | < 0.5 µM |
| Cc1c(C(=O)CN2CCC(O)CC2)cn(C)c1-c1ccc(Cl)cc1 [Compound 94, 1-(5-(4-Chlorophenyl)-1,4-dimethyl-1H-pyrrol-3-yl)-2-(4-hydroxypiperidin-1-yl)ethanone] | < 0.5 µM |
| Cc1cc(C(=O)CN2CCC(O)CC2)n(C)c1-c1ccc(Cl)cc1 [Compound 95, 1-(5-(4-Chlorophenyl)-1,4-dimethyl-1H-pyrrol-2-yl)-2-(4-hydroxypiperidin-1-yl)ethanone] | < 0.5 µM |
| Cc1cc(C(=O)CN2CCCCC2)n(C)c1-c1ccc(Cl)cc1 [Compound 96, 1-(5-(4-Chlorophenyl)-1,4-dimethyl-1H-pyrrol-2-yl)-2-(piperidin-1-yl)ethanone] | < 0.5 µM |
| Cc1cc(C(=O)CN2CCCCC2)c(C)n1C1CCC(Cl)(Cl)CC1 [Compound 97, 1-(1-(4,4-Dichlorocyclohexyl)-2,5-dimethyl-1H-pyrrol-3-yl)-2-(piperidin-1-yl)ethanone] | < 0.5 µM |
| Cc1cc(C(=O)C[n+]2ccccc2)c(C)n1-c1ccc(Cl)cc1 [Compound 99, 1-(2-(1-(4-Chlorophenyl)-2,5-dimethyl-1H-pyrrol-3-yl)-2-oxoethyl)pyridin-1-ium Chloride] | < 0.5 µM |
| Cc1cc(C=O)c(C)n1-c1ccc(Cl)cc1 [Compound 100, 1-(4-Chlorophenyl)-2,5-dimethyl-1H-pyrrole-3-carbaldehyde] | > 5 µM |
| Cc1cc(C(=O)CNCCO)c(C)n1-c1ccc(Cl)cc1 [Compound 101, 1-(1-(4-Chlorophenyl)-2,5-dimethyl-1H-pyrrol-3-yl)-2-((2-hydroxyethyl)amino)ethan-one] | > 5 µM |
| Cc1cc(C(=O)CNCC2COC(C)(C)O2)c(C)n1-c1ccc(C#N)cc1 (stereo not shown) [Compound 102, 4-(3-(2-(((2,2-Dimethyl-1,3-dioxolan-4-yl)methyl)amino)acetyl)-2,5-dimethyl-1H-pyrrol-1-yl)benzonitrile] | > 5 µM |
| Cc1cc(C(=O)CN2CCCCC2)c(C)n1[C@H]1CC[C@@H](C(N)=O)CC1 [Compound 103, cis-4-(2,5-Dimethyl-3-(2-(piperidin-1-yl)acetyl)-1H-pyrrol-1-yl)cyclohexanecarboxamide] | > 5 µM |
| Cc1cc(C(=O)CN2CCCCC2)c(C)n1[C@H]1CC[C@@H](C#N)CC1 [Compound 105, cis-(2,5-Dimethyl-3-(2-(piperidin-1-yl)acetyl)-1H-pyrrol-1-yl)cyclohexanecarbonitrile] | > 5 µM |
| Cc1cc(C(=O)CN2CCCCC2)c(C)n1CC(F)(F)F [Compound 107, 1-(2,5-Dimethyl-1-(2,2,2-trifluoroethyl)-1H-pyrrol-3-yl)-2-(piperidin-1-yl)ethanone] | > 5 µM |
| Cc1cc(C(=O)CN2CCCCC2)c(C)n1-c1ccc(C(=O)OCc2ccccc2)cc1 [Compound 110, trans-Benzyl 4-(2,5-dimethyl-3-(2-(piperidin-1-yl)acetyl)-1H-pyrrol-1-yl)benzoate] | > 5 µM |
| Cc1cc(C(=O)CN2CCC(O)CC2)c(C)n1-c1ccc(C(=O)OCc2ccccc2)cc1 [Compound 111, trans-Benzyl 4-(3-(2-(4-hydroxypiperidin-1-yl)acetyl)-2,5-dimethyl-1H-pyrrol-1-yl)benzoate] | > 5 µM |
| CCc1ccc(C(=O)CN2CCCCC2)n1-c1ccc(C#N)cc1 [Compound 112, 4-(2-Ethyl-5-(2-(piperidin-1-yl)acetyl)-1H-pyrrol-1-yl)benzonitrile] | > 5 µM |
| Cc1cc(C(=O)CN2CCC(O)CC2)c(C)n1-c1ccc(C(=O)O)cc1 [Compound 113, 4-(3-(2-(4-Hydroxypiperidin-1-yl)acetyl)-2,5-dimethyl-1H-pyrrol-1-yl)benzoic acid] | > 5 µM |
| Cc1cc(C(=O)CN2CCCCC2)c(C)n1-c1ccc(C(=O)O)cc1 [Compound 114, 4-(2,5-Dimethyl-3-(2-(piperidin-1-yl)acetyl)-1H-pyrrol-1-yl)benzoic acid] | > 5 µM |
| CC(=O)c1c(CN2CCCCC2)c(C)n(-c2ccc(C#N)cc2)c1C [Compound 117, 4-(3-Acetyl-2,5-dimethyl-4-(piperidin-1-ylmethyl)-1H-pyrrol-1-yl)benzonitrile] | > 5 µM |
| Cc1cc(C(=O)CN2CCCCC2)c(C)n1[C@H]1CC[C@H](C(=O)O)CC1 [Compound 121, trans-4-(2,5-Dimethyl-3-(2-(piperidin-1-yl)acetyl)-1H-pyrrol-1-yl)cyclohexane-1-carboxylic acid] | > 5 µM |
